Tests used:
[1] = tested on: Leishmania amazonensis; assay: Antileishmanial activity against Leishmania amazonensis WHOM/BR/75/JOSEFA axenic amastigotes after 72 hrs by Neubauer chamber method; assay type: functional
[2] = Selectivity index, ratio of CC50 for mouse J774A1 cells to IC50 for Leishmania amazonensis WHOM/BR/75/JOSEFA promastigotes; assay type: functional, J774.A1
[3] = tested on: Leishmania amazonensis; assay: Antileishmanial activity against Leishmania amazonensis WHOM/BR/75/JOSEFA promastigotes after 72 hrs by Neubauer chamber method; assay type: functional
[4] = Cytotoxicity against mouse J774A1 cells assessed as decrease in cell viability after 48 hrs by MTT method; assay type: toxicity, J774.A1
[5] = Cytotoxicity against mouse L929 cells assessed as decrease in cell viability after 48 hrs by MTT method; assay type: toxicity
[6] = Selectivity index, ratio of CC50 for mouse L929 cells to IC50 for Leishmania amazonensis WHOM/BR/75/JOSEFA axenic amastigotes; assay type: functional
[7] = Selectivity index, ratio of CC50 for mouse J774A1 cells to IC50 for Leishmania amazonensis WHOM/BR/75/JOSEFA axenic amastigotes; assay type: functional, J774.A1
[8] = Selectivity index, ratio of CC50 for mouse L929 cells to IC50 for Leishmania amazonensis WHOM/BR/75/JOSEFA promastigotes; assay type: functional

| SMILES | IC50 [3] [µM] | other results |
| --- | --- | --- |
| O=C(N/N=C/c1ccc(-c2cccs2)s1)c1n[nH]c(=O)c2c1cnn2-c1ccccc1 | 10.8 | IC50 [1]: > 100 µM; Ratio CC50/IC50 [2]: 10.6; CC50 at 48 h [4]: 114 µM; CC50 at 48 h [5]: < 1 µM |
| CN(/N=C/c1ccc(-c2cccs2)s1)C(=O)c1nn(-c2ccccc2)c(=O)c2c1cnn2-c1ccccc1 | > 100 | – |
| O=C(N/N=C/c1cccs1)c1n[nH]c(=O)c2c1cnn2-c1ccccc1 | > 100 | – |
| NNC(=O)c1nn(-c2ccccc2)c(=O)c2c1cnn2-c1ccccc1 | > 100 | – |
| O=C(N/N=C/c1cccs1)c1nn(-c2ccccc2)c(=O)c2c1cnn2-c1ccc(Cl)cc1 | > 100 | – |
| O=C(N/N=C/c1ccc(-c2cccs2)s1)c1nn(-c2ccc(Cl)cc2)c(=O)c2c1cnn2-c1ccc(Cl)cc1 | > 100 | – |
| O=C(N/N=C/c1cccs1)c1nn(-c2ccc(Cl)cc2)c(=O)c2c1cnn2-c1ccccc1 | > 100 | – |
| NNC(=O)c1nn(-c2ccc(Cl)cc2)c(=O)c2c1cnn2-c1ccc(Cl)cc1 | > 100 | – |
| O=C(N/N=C/c1ccc(-c2cccs2)s1)c1nn(-c2ccc(Cl)cc2)c(=O)c2c1cnn2-c1ccccc1 | > 100 | – |
| NNC(=O)c1nn(-c2ccccc2)c(=O)c2c1cnn2-c1ccc(Cl)cc1 | > 100 | – |
| O=C(N/N=C/c1ccc(-c2cccs2)s1)c1nn(-c2ccccc2)c(=O)c2c1cnn2-c1ccccc1 | 3.63 | IC50 [1]: 2.32 µM; Ratio CC50/IC50 [2]: >52.71; Ratio CC50/IC50 [6]: 33.38; Ratio CC50/IC50 [7]: >82.48; CC50 at 48 h [4]: > 191 µM; CC50 at 48 h [5]: 77.4 µM; Ratio CC50/IC50 [8]: 21.33 |
| O=C(N/N=C/c1cccs1)c1n[nH]c(=O)c2c1cnn2-c1ccc(Cl)cc1 | > 100 | – |
| NNC(=O)c1n[nH]c(=O)c2[nH]ncc12 | > 100 | – |
| NNC(=O)c1n[nH]c(=O)c2c1cnn2-c1ccccc1 | > 100 | – |
| O=C(N/N=C/c1cccs1)c1nn(-c2ccc(Cl)cc2)c(=O)c2c1cnn2-c1ccc(Cl)cc1 | > 100 | – |
| O=C(N/N=C/c1cccs1)c1n[nH]c(=O)c2[nH]ncc12 | > 100 | – |
| O=C(N/N=C/c1ccc(-c2cccs2)s1)c1nn(-c2ccccc2)c(=O)c2c1cnn2-c1ccc(Cl)cc1 | > 100 | – |
| NNC(=O)c1nn(-c2ccc(Cl)cc2)c(=O)c2c1cnn2-c1ccccc1 | > 100 | – |
| C[C@@H]1[C@H](O)[C@@H](C)/C=C/C=C/C=C/C=C/C=C/C=C/C=C/[C@H](O[C@@H]2O[C@H](C)[C@@H](O)[C@H](N)[C@@H]2O)C[C@@H]2O[C@](O)(C[C@@H](O)C[C@@H](O)[C@H](O)CC[C@@H](O)C[C@@H](O)CC(=O)O[C@H]1C)C[C@H](O)[C@H]2C(=O)O [AMPHOTERICIN B] | 0.64 | Ratio CC50/IC50 [2]: 26.25; CC50 at 48 h [4]: 16.8 µM; CC50 at 48 h [5]: 79.1 µM; Ratio CC50/IC50 [8]: 123.64 |
| O=C(N/N=C/c1ccc(-c2cccs2)s1)c1n[nH]c(=O)c2[nH]ncc12 | > 100 | – |
| NNC(=O)c1n[nH]c(=O)c2c1cnn2-c1ccc(Cl)cc1 | > 100 | – |
| O=C(N/N=C/c1ccc(-c2cccs2)s1)c1n[nH]c(=O)c2c1cnn2-c1ccc(Cl)cc1 | > 100 | – |
| O=C(N/N=C/c1cccs1)c1nn(-c2ccccc2)c(=O)c2c1cnn2-c1ccccc1 | 85 | IC50 [1]: 32.7 µM; Ratio CC50/IC50 [2]: 1.25; Ratio CC50/IC50 [6]: 5.68; Ratio CC50/IC50 [7]: 3.25; CC50 at 48 h [4]: 106 µM; CC50 at 48 h [5]: 186 µM; Ratio CC50/IC50 [8]: 2.19 |
